# Test results as given in patent US12723063B2, “GIPR-agonist compounds” (Eli Lilly and Company, priority 2019, dated 2026).
# pKi: −log10 of the molar value.
# Columns and labels:
# human GIPR = biological target: T1, human GIPR (Homo sapiens, UniProt P48546); assay: [125I]-GIP binding, SPA with WGA beads, 0.1% bacitracin; details: geometric mean, read-out: hGIPR Ki
# T1 construct: expressed in transfected cells; crude membranes
# T1 sequence (P48546 22-466): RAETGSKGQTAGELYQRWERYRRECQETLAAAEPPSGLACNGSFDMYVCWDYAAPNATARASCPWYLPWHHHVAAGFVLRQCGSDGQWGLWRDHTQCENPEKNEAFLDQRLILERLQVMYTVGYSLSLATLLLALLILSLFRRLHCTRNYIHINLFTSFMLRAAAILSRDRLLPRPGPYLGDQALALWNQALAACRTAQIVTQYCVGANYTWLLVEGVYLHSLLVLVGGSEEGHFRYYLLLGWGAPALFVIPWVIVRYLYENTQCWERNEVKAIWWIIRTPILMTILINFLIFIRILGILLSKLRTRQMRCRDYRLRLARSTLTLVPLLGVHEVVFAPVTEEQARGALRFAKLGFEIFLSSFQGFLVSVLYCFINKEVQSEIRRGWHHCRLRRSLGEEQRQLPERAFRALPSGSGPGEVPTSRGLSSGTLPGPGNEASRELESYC
# In short: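 Ki values are geometric means (SEM, n independent days), derived from four-parameter nonlinear regression of IC50. Membranes came from hGIPR-expressing CHO cells.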
# human GLP-1R = biological target: T2, human GLP-1R (Homo sapiens, UniProt P43220); assay: [125I]-GLP-1 binding, SPA with WGA beads, 0.1% bacitracin; details: geometric mean, read-out: hGLP1R Ki
# T2 construct: expressed in transfected cells; crude membranes
# T2 sequence (P43220 24-463): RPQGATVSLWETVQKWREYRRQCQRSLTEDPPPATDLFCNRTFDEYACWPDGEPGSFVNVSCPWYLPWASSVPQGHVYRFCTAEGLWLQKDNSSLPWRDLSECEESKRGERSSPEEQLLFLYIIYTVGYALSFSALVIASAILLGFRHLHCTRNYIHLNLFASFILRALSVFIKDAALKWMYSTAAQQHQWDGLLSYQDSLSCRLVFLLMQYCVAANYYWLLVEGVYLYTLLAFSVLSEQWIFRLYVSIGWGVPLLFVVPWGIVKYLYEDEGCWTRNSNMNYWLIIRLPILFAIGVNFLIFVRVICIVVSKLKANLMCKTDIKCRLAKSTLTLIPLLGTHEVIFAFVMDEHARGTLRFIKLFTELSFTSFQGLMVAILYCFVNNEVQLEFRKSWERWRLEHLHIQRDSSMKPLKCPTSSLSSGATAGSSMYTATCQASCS
# In short: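 Binding buffer was 25 mM HEPES pH 7.4 with 2.5 mM CaCl2, 1 mM MgCl2, 0.1% (w/v) bacitracin, 0.003% Tween-20 and EDTA-free protease inhibitors. Four-parameter regression gave IC50, converted to Ki (geometric mean, SEM, n independent days).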
# [1] = Pharmacokinetics in male cynomolgus monkeys, single subcutaneous administration; type: in vivo, cynomolgus monkey; details: 50 nmol/kg single SC, mean n = 2
# Method: The pharmacokinetics of select Examples are evaluated following a single subcutaneous administration of 50 nmol/kg to male cynomolgus monkeys. Blood samples are collected over 504 hours and resulting individual plasma concentrations are used to calculate pharmacokinetic parameters. Peptide plasma (K3 EDTA) concentrations are determined using a qualified LC/MS method that measured the intact mass of the compound. Each peptide and an analog as an internal standard are extracted from 100% cynomolgus monkey plasma using a protein precipitation method. Instruments are combined for LC/MS detection.
# [2] = Pharmacokinetics in male Sprague Dawley rats, single subcutaneous administration; type: in vivo, Sprague Dawley rat; details: 100 nmol/kg single SC, mean n = 3 (example 3 n = 1)
# Method: The pharmacokinetics of select Examples are evaluated following a single subcutaneous (SC) administration of 100 nmol/kg to male Sprague Dawley rats. Blood samples are collected over 168 hours following SC administration. Pharmacokinetic parameters are calculated using individual plasma concentrations. A qualified LC/MS method that measures the intact mass of the Example is used to determine plasma (K3 EDTA) concentrations. Each peptide and an analog as an internal standard are extracted from 100% rat plasma using a protein precipitation method. Instruments are combined for LC/MS detection. Mean pharmacokinetic parameters for the Examples are shown in […]
structure (smiles),measurement,setting,value
CC[C@H](C)[C@H](NC(=O)[C@H](CCCN)NC(=O)[C@H](CC(=O)O)NC(=O)[C@H](CC(C)C)NC(=O)[C@](C)(CC(C)C)NC(=O)[C@@H](NC(=O)[C@H](CO)NC(=O)[C@H](Cc1ccc(O)cc1)NC(=O)[C@H](CC(=O)O)NC(=O)[C@H](CO)NC(=O)[C@@H](NC(=O)[C@H](Cc1ccccc1)NC(=O)[C@@H](NC(=O)CNC(=O)[C@H](CCC(=O)O)NC(=O)C(C)(C)NC(=O)[C@@H](N)Cc1ccc(O)cc1)[C@@H](C)O)[C@@H](C)CC)[C@@H](C)CC)C(=O)N[C@@H](Cc1c[nH]cn1)C(=O)N[C@@H](CCC(N)=O)C(=O)NC(C)(C)C(=O)N[C@@H](CC(=O)O)C(=O)N[C@@H](Cc1ccccc1)C(=O)N[C@H](C(=O)N[C@@H](CCC(=O)O)C(=O)N[C@@H](Cc1ccc(O)cc1)C(=O)N[C@@H](CCCCNC(=O)COCCOCCNC(=O)COCCOCCNC(=O)CC[C@H](NC(=O)CCCCCCCCCCCCCCCCCCC(=O)O)C(=O)O)C(=O)N[C@@H](CC(C)C)C(=O)N[C@@H](CCC(=O)O)C(=O)NCC(=O)NCC(=O)N1CCC[C@H]1C(=O)N[C@@H](CO)C(=O)N[C@@H](CO)C(=O)NCC(=O)N[C@@H](C)C(=O)N1CCC[C@H]1C(=O)N1CCC[C@H]1C(=O)N1CCC[C@H]1C(=O)N[C@@H](CO)C(N)=O)C(C)C [Example 6],pKi,human GIPR,9.98
same,pKi,human GLP-1R,6.24
same,AUCInf/Dose,[1],1382 hr*kg*nmol/L/nmol
same,Cmax/Dose,[1],7.83 kg*nmol/L/nmol
same,CL/F,"[1]; cynomolgus monkey, plasma",0.77 mL/h/kg
same,Tmax,"[1]; cynomolgus monkey, plasma",6 h
same,half-life,"[1]; cynomolgus monkey, plasma",129 h
same,AUCInf/Dose,[2],271 hr*kg*nmol/L/nmol
same,Cmax/Dose,[2],4.07 kg*nmol/L/nmol
same,CL/F,"[2]; rat, plasma",3.69 mL/h/kg
same,half-life,"[2]; rat, plasma",34.8 h
